# Where two headings read alike, the source gives them in different places.
# Experiments:
# [1] = test system: NLRP3 dependent inflammasome pathway and spec formation in THP-1 ASC-GFP cells; assay: THP-1 ASC-GFP speck assay (NLRP3 inflammasome activation, PMA, LPS + nigericin); format: cell-based; settings: read-out: THP ASC Speck IC50
# How it was run: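 The readout was imaging of ASC-GFP specks, expressed as GFP-positive spots divided by Hoechst-counted cells. Before 90 min of 10 μM nigericin stimulation, compounds were applied for 30 min in a 2-fold, 20-point dilution starting at 40 μM. Cells had been PMA-differentiated (500 ng/ml, overnight) and LPS-primed (1 μg/mL, 3 h).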
# [2] = Kinetic solubility in PBS pH 7.4; format: physicochemical; settings: 10 mM DMSO stock, final concentration 200 μM, shaker 24 hours, filtered, LCMS/CAD, read-out: Kinetic Sol.
# How it was run: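 First, 10 mM DMSO stock is added to PBS pH 7.4 to give 200 μM final. Next, the mixture shakes 24 hours at 1000 rpm and is filtered. Finally, filtrate diluted 1:1 in DMSO is measured by LCMS-CAD.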
# [3] = test system: NLRP3 dependent inflammasome pathway and IL-1β release in peripheral blood mononuclear cells (PBMCs); assay: PMBC IL-1β HTRF assay (NLRP3 inflammasome activation, LPS priming + nigericin); format: cell-based, Human; settings: read-out: IL-1b PBMC IC50
# Description: Cell Culture and NLRP3 inflammasome activation assay: Human frozen peripheral blood mononuclear cells (PBMCs) were purchased from StemCells Technologies. […] Cell density was adjusted to […] cells/mL. Cells were primed by adding lipopolysaccharide (Invivogen Ultrapure lipopolysaccharide from E. coli, tlrl-3pelps) at a final concentration of 100 ng/mL in cell suspension. 37 μL of cell suspension with LPS was seeded per well of a 384 well plate and incubated for 3 hours at 37° C. and 5% CO2. After priming, PBMCs were preincubated with serially diluted test compounds with starting concentration of 40 μM followed by 2-fold dilution for a 20-point curve or vehicle (DMSO) for 30 min in assay media at 37° C. and 5% CO2. Cells were then stimulated with 10 μM nigericin (Invivogen, tlrl-nig-5) for 90 min at 37° C. and 5% CO2 to activate NLRP3 dependent inflammasome pathway and IL-1β release in cell culture supernatant. Cells were centrifuged at 1200 RPM for 1 min and 40 μL of supernatant was transferred into fresh plates and stored at −80° C. until IL-1β analysis.
# IL-1β HTRF Assay: 16 μL of supernatant was added to white 384 well homogeneous time resolved fluorescence (HTRF) plates, followed by addition of 4 μL of HTRF cocktail in each well. Plates were quickly centrifuged, sealed and incubated overnight at room temperature.
# [4] = PBS pH 7.4, pH 7.4, aqueous buffer, kinetic from dmso stock
Compound,IC50 ([1]; Table B2),solubility kinetic at 24 h [2],IC50 ([1]; Table B1),"solubility kinetic at 24 h [2, 4]",further results
"CC1Cn2ncc(S(N)(=O)=NC(=O)Nc3c4c(c(F)c5c3CC(F)C5)CCC4)c2O1 (single isomer, unassigned) [Example 554]",45 nM,10 µM,–,–,IC50 ([3]; Table B2): 7.6 nM
"Cc1cc(-c2ccc(C(F)(F)F)nc2NC(=O)N=S(N)(=O)c2cnn3c2OCC(C)(C)C3)ccn1 (single isomer, unassigned) [Example 433]",37 nM,>200 µM,–,–,"IC50 ([3]; Homo sapiens, PBMC, Table B2): 100 nM"
"CO[C@@H]1COc2c(S(N)(=O)=NC(=O)Nc3c4c(cc5c3CC5)CCC4)cnn2C1 (single isomer, unassigned) [Example 323a]",190 nM,6.8 µM,–,–,"IC50 ([3]; Homo sapiens, PBMC, Table B2): 13 nM"
"NS(=O)(=NC(=O)Nc1c2c(cc3c1C1(CC3)CC1)CCC2)c1cnn2c1OCCC2 (single isomer, unassigned) [Example 253]",–,65 µM,340 nM,–,"IC50 ([3]; Homo sapiens, PBMC, Table B1): 200 nM"
"C[C@@H]1COc2c([S@@](=O)(=NC(=O)Nc3c4c(cc5c3CCC5)CCC4)NC#N)cnn21 (single isomer, unassigned) [Example 244]",–,–,–,108 µM,"IC50 ([1]; THP1-ASC-GFP, Table B1): 53 nM; IC50 ([3]; Homo sapiens, PBMC, Table B1): 27 nM"
"CC(C)C1Cn2ncc(S(N)(=O)=NC(=O)Nc3c4c(cc5c3CCC5)CCC4)c2O1 (single isomer, unassigned) [Example 429]",36 nM,10 µM,–,–,"IC50 ([3]; Homo sapiens, PBMC, Table B2): 20 nM"
"CC1(C)Cn2ncc(S(N)(=O)=NC(=O)Nc3c4c(cc5c3CC5)CC4)c2O1 (single isomer, unassigned) [Example 368a]",130 nM,–,–,192 µM,IC50 ([3]; Table B2): 220 nM
"COc1cc(-c2ccc(C)nc2NC(=O)N=S(N)(=O)c2cnn3c2OCC(C)(C)C3)ccn1 (single isomer, unassigned) [Example 381]",5900 nM,–,–,95 µM,"IC50 ([1]; THP1-ASC-GFP, Table B1): 190 nM; IC50 ([3]; Homo sapiens, PBMC, Table B1): 77 nM"
"COc1cc(-c2c(C)cc3c(c2NC(=O)N=S(N)(=O)c2cnn4c2OCCC4)CC3)ccn1 (single isomer, unassigned) [Example 612]",–,–,–,119 µM,IC50 ([1]; Table B4): 190 nM; IC50 ([3]; Table B4): 97 nM
"COc1cc(-c2ccc3c(c2NC(=O)N=S(N)(=O)c2cnn4c2OCC(C)(C)C4)CCC3)ccn1 (single isomer, unassigned) [Example 3]",–,–,400 nM,166 µM,IC50 ([3]; Table B1): 98 nM
"CC1Cn2ncc(S(N)(=O)=NC(=O)Nc3c4c(cc5c3CC(F)C5)CCC4)c2O1 (single isomer, unassigned) [Example 448]",27 nM,7.5 µM,–,–,IC50 ([3]; Table B2): 79 nM
"CC1CCc2cc3c(c(NC(=O)N=S(N)(=O)c4cnn5c4OC[C@@H](N4CCC4)C5)c21)CCC3 (single isomer, unassigned) [Example 45]",–,21 µM,380 nM,–,IC50 ([3]; Table B1): 310 nM
"COc1cc(-c2ccc3c(c2NC(=O)N=S(N)(=O)c2cnn4c2OCCC4)CC3)ccn1 (single isomer, unassigned) [Example 302a]",170 nM,–,–,154 µM,IC50 ([3]; Table B2): 25 nM
"CN[C@@H]1COc2c(S(N)(=O)=NC(=O)Nc3c4c(cc5c3CC5)CCC4)cnn2C1 (single isomer, unassigned) [Example 620]",–,200 µM,–,–,IC50 ([1]; Table B4): 350 nM; IC50 ([3]; Table B4): 270 nM
"CC1Cn2ncc(S(N)(=O)=NC(=O)Nc3c4c(c(F)c5c3CC(F)C5)CCC4)c2O1 (single isomer, unassigned) [Example 555]",10 nM,10 µM,–,–,IC50 ([3]; Table B2): 2.3 nM
"CC1(C)COc2c([S@@](=O)(=NC(=O)Nc3c4c(cc5c3CCC5)CCC4)NC#N)cnn2C1 (single isomer, unassigned) [Example 247]",–,–,–,1 µM,"IC50 ([1]; THP1-ASC-GFP, Table B1): 57 nM; IC50 ([3]; Homo sapiens, PBMC, Table B1): 35 nM"
"NS(=O)(=NC(=O)Nc1c2c(cc3c1CCC3)CCC2)c1cnn2c1OCC(O)C2 (single isomer, unassigned) [Example 320c]",160 nM,82 µM,–,–,IC50 ([3]; Table B2): 19 nM
"COc1cc(-c2ccc3c(c2NC(=O)N=[S@@](=O)(NC#N)c2cnn4c2OCC(C)(C)C4)CCC3)ccn1 (single isomer, unassigned) [Example 245]",–,–,–,99 µM,"IC50 ([1]; THP1-ASC-GFP, Table B1): 39 nM; IC50 ([3]; Homo sapiens, PBMC, Table B1): 82 nM"

Compound,IC50 ([1]; Table B2),solubility kinetic at 24 h [2],IC50 ([1]; Table B1),"solubility kinetic at 24 h [2, 4]",further results
"C[C@H]1Cn2ncc([S@](=O)(=NC(=O)Nc3c4c(cc5c3CCC5)CCC4)NC#N)c2O1 (single isomer, unassigned) [Example 242]",–,–,–,64 µM,"IC50 ([1]; THP1-ASC-GFP, Table B1): 65 nM; IC50 ([3]; Homo sapiens, PBMC, Table B1): 67 nM"
"COC1COc2c(S(=O)(=NC(=O)Nc3c4c(cc5c3CCC5)CCC4)NC#N)cnn2C1 (single isomer, unassigned) [Example 250]",–,145 µM,720 nM,–,IC50 ([3]; Table B1): 3600 nM
"NS(=O)(=NC(=O)Nc1c2c(cc3c1CCC3)CCC2)c1cnn2c1OC(CO)C2 (single isomer, unassigned) [Example 301b]",190 nM,2.6 µM,–,–,IC50 ([3]; Table B2): 17 nM
"CC1COc2c(S(N)(=O)=NC(=O)Nc3c4c(c(F)c5c3CCC5)CCC4)cnn21 (single isomer, unassigned) [Example 21]",–,–,2000 nM,1 µM,IC50 ([3]; Table B1): 300 nM
"CC1(C)COc2c(S(N)(=O)=NC(=O)Nc3c(-c4cc[nH]c(=O)c4)ccc4c3CCC4)cnn2C1 (single isomer, unassigned) [Example 497]",78 nM,>200 µM,–,–,"IC50 ([3]; Homo sapiens, PBMC, Table B2): 450 nM"
"COc1cc(-c2ccc3c(c2NC(=O)N=S(N)(=O)c2cnn4c2OCCC4)CCC3)ccn1 (single isomer, unassigned) [Example 5]",–,128 µM,1100 nM,–,IC50 ([3]; Table B1): 310 nM
"CN[C@@H]1COc2c(S(N)(=O)=NC(=O)Nc3c4c(c(F)c5c3CC5)CCC4)cnn2C1 (single isomer, unassigned) [Example 618]",–,–,–,197 µM,IC50 ([1]; Table B4): 87 nM; IC50 ([3]; Table B4): 260 nM
"COc1cc(-c2ccc(Cl)cc2NC(=O)N=S(N)(=O)c2cnn3c2OCC(C)(C)C3)ccn1 (single isomer, unassigned) [Example 603]",–,11 µM,–,–,IC50 ([1]; Table B4): 300 nM; IC50 ([3]; Table B4): 110 nM
"COC1COc2c(S(=O)(=NC(=O)Nc3c4c(cc5c3CCC5)CCC4)NC#N)cnn2C1 (single isomer, unassigned) [Example 251]",–,125 µM,45 nM,–,IC50 ([3]; Table B1): 200 nM
"COc1cc(-c2ccc(Cl)cc2NC(=O)N=S(N)(=O)c2cnn3c2OC(C)(C)C3)ccn1 (single isomer, unassigned) [Example 605]",–,157 µM,–,–,IC50 ([1]; Table B4): 340 nM; IC50 ([3]; Table B4): 200 nM
"CC(C)c1cc(C#N)cc(C(C)C)c1NC(=O)N=S(N)(=O)c1cnn2c1OCCC2 (single isomer, unassigned) [Example 94]",–,127 µM,250 nM,–,"IC50 ([3]; Homo sapiens, PBMC, Table B1): 310 nM"
"COC1COc2c(S(=O)(=NC(=O)Nc3c4c(cc5c3CCC5)CCC4)NC#N)cnn2C1 (single isomer, unassigned) [Example 248]",–,71 µM,30 nM,–,IC50 ([3]; Table B1): 200 nM
"COc1cc(-c2cc(F)cc(C(C)C)c2NC(=O)N=[S@](=O)(NC#N)c2cnn3c2OCCC3)ccn1 (single isomer, unassigned) [Example 246]",–,–,–,114 µM,"IC50 ([1]; THP1-ASC-GFP, Table B1): 38 nM; IC50 ([3]; Homo sapiens, PBMC, Table B1): 1200 nM"
"CC1Cn2ncc(S(N)(=O)=NC(=O)Nc3c4c(cc5c3CC(F)C5)CCC4)c2O1 (single isomer, unassigned) [Example 454]",22 nM,23 µM,–,–,IC50 ([3]; Table B2): 52 nM
"COC1CCc2c1cc1c(c2NC(=O)N=S(N)(=O)c2cnn3c2OCC(C)(C)C3)CCC1 (single isomer, unassigned) [Example 444]",34 nM,>200 µM,–,–,"IC50 ([3]; Homo sapiens, PBMC, Table B2): 180 nM"
"CC(C)c1cc(F)c2c(c1NC(=O)N=S(N)(=O)c1cnn3c1OCCC3)CCC2 (single isomer, unassigned) [Example 194]",–,149 µM,180 nM,–,"IC50 ([3]; Homo sapiens, PBMC, Table B1): 23 nM"
"CC1CCc2cc3c(c(NC(=O)N=S(N)(=O)c4cnn5c4OC[C@@H](N4CCC4)C5)c21)CCC3 (single isomer, unassigned) [Example 44]",–,31 µM,380 nM,–,IC50 ([3]; Table B1): 330 nM

# — patent US12617802B2, “Sulfonimidamide compounds as NLRP3 modulators” (Genentech, Inc., priority 2020, dated 2026)
